Values of other authors as cited in US20050202001A1 (priority 2002, published 2005).

Experiments:
[1] = system: normal human neonatal melanocytes

Structure (SMILES): COc1cccc(-c2cc(=O)c3ccccc3o2)c1N [PD98059]
- melanogenesis [1]: stimulated melanogenesis
- melanogenesis (human melanoma cells): stimulated melanogenesis
